Measurements reported in paper PMC3653948, “PDZ Domain-Mediated Interactions of G Protein-Coupled Receptors with Postsynaptic Density Protein 95: Quantitative Characterization of Interactions” (PLoS ONE, 2013).
Entries after “also recorded” stand apart in the source; their conditions may differ. Read-outs that look alike come from different tables or passages of the source. Peptide text beside a SMILES is read from it.

Experiments:
PSD-95 PDZ1 = molecular target: T1, PSD-95 PDZ1 (Homo sapiens, UniProt P78352); experiment: FP competition assay, PSD-95 PDZ1 (probe Cy5-KIF1Bα); format: binding
T1 construct: PSD-95 PDZ1 (aa 61–151); made in house; host or cells: E. coli One Shot BL21 Star (DE3)
Protocol: (§4) FP measurements were performed in black, flat bottom 384-well NBS microplates (Corning) on a Synergy H4 microplatereader (BioTek Instruments) equipped with a 620/40 nm excitation filter, a 680/30 nm emission filter, and a 660 nm dichroic mirror. Polarization values were corrected with blank samples and samples with fluorescent probe alone. At least 10 data points were measured for each curve, and each data point was measured in triplicate. […] All FP measurements were performed in a buffer containing 10 mM HEPES pH 7.4, 150 mM NaCl, and 1% BSA and incubated at least 15 min at room temperature before reading. The signal was stable for more than an hour, showing that the reaction was at equilibrium.
(§5) For the competition binding curves, probe was mixed with a constant concentration of PDZ protein corresponding to the K d and a twofold dilution series of unlabeled peptide in a total volume of 30 µl. The baseline was determined using a sample containing only probe. The IC50 was determined by fitting to a 1∶1 binding model: Y = Ymax − Ymax × X/(X+IC50). The K i was calculated from the IC50 and from the K d for the interaction between the PDZ protein and the probe as described previously [38].

PSD-95 PDZ2 = molecular target: T2, PSD-95 PDZ2 (Homo sapiens, UniProt P78352); experiment: FP competition assay, PSD-95 PDZ2 (probe Cy5-GluN2B); format: binding; details: read-out: K i PDZ2
T2 construct: PDZ2 (aa 155–249); made in house; host or cells: E. coli One Shot BL21 Star (DE3)
Protocol: as §4, §5

PSD-95 PDZ3 = molecular target: T3, PSD-95 PDZ3 (Homo sapiens, UniProt P78352); experiment: FP competition assay, PSD-95 PDZ3 (probe Cy5-CRIPT); format: binding
T3 construct: made in house; host or cells: E. coli One Shot BL21 Star (DE3)
Protocol: (§1) We used a competition set-up, where a constant concentration of isolated PSD-95 PDZ domain and a labeled reference ligand was titrated with unlabeled peptides from the GPCR C-tail library, typically within a 1–512 µM concentration range, and the resulting curves were fitted to obtain the IC50, which was used to calculate the K i (Figure 1). Three Cy5-labeled peptides with well-documented interactions with PSD-95 were used as reference ligands for the competition assay: Cy5-KIF1Bα was used for PDZ1 [20], Cy5-GluN2B (formerly known as NR2B) was used for PDZ2 and PDZ1-2 [21], and Cy5-CRIPT was used for PDZ3 [22] (Table S1). Competition with unlabeled versions of the reference ligands was used to validate the FP assay by comparison with the literature (Table S2).
(§2) FP measurements were performed in black, flat bottom 384-well NBS microplates (Corning) on a Synergy H4 microplatereader (BioTek Instruments) equipped with a 620/40 nm excitation filter, a 680/30 nm emission filter, and a 660 nm dichroic mirror. Polarization values were corrected with blank samples and samples with fluorescent probe alone. At least 10 data points were measured for each curve, and each data point was measured in triplicate. 25 nM Cy5-labeled probe was used for each assay: Cy5-KIF1Bα for PDZ1, Cy5-GluN2B for PDZ2 and PDZ1-2, and Cy5-CRIPT for PDZ3. All FP measurements were performed in a buffer containing 10 mM HEPES pH 7.4, 150 mM NaCl, and 1% BSA and incubated at least 15 min at room temperature before reading. The signal was stable for more than an hour, showing that the reaction was at equilibrium.
Saturation binding curves were used to determine the functionality of the PDZ domains by comparison with literature values and to calculate K i values from competition curves. Saturation binding curves were performed by mixing probe with a twofold dilution series of PDZ protein in a total volume of 30 µl. The K d was determined by fitting to a 1∶1 binding model: Y = Ymax × X/(X+K d).
(§3) For the competition binding curves, probe was mixed with a constant concentration of PDZ protein corresponding to the K d and a twofold dilution series of unlabeled peptide in a total volume of 30 µl. The baseline was determined using a sample containing only probe. The IC50 was determined by fitting to a 1∶1 binding model: Y = Ymax − Ymax × X/(X+IC50). The K i was calculated from the IC50 and from the K d for the interaction between the PDZ protein and the probe as described previously.

PSD-95 = experiment: FP competition assay, PSD-95 PDZ domains overall (strongest binding domain / non-binders); details: FP competition with the isolated PDZ domains, peptide typically 1–512 µM
Protocol: as §1, §2, §3

[1] = 25 nM Cy5-KIF1Bα, 10 mM HEPES pH 7.4, 150 mM NaCl, 1% BSA, room temperature, at least 15 min, Ki ± fitting error, read-out: K i PDZ1

Molecule	Interaction with PSD-95 using fluorescence polarization (PSD-95)	other results
CC(C)[C@H](NC(=O)[C@H](CS)NC(=O)[C@H](CO)NC(=O)[C@@H](NC(=O)[C@H](CCCCN)NC(=O)[C@H](CCC(=O)O)NC(=O)[C@H](CC(N)=O)NC(=O)[C@@H](NC(=O)CNC(=O)[C@H](CC(=O)O)NC(=O)[C@H](CCCNC(=N)N)NC(=O)[C@H](CC(=O)O)NC(=O)[C@H](CC(=O)O)NC(=O)[C@@H](N)Cc1ccc(O)cc1)C(C)C)C(C)C)C(=O)O [5-HTR2A] (H-YDDRDGVNEKVSCV-OH)		Ki (PSD-95 PDZ1; [1]): 160 ± 4 µM; Ki (PSD-95 PDZ2): 46 ± 0.2 µM; Ki (PSD-95 PDZ3; read-out: K i PDZ3): > 1000 µM
CC(C)C[C@H](NC(=O)[C@@H](NC(=O)[C@@H](NC(=O)[C@H](CO)NC(=O)[C@@H](NC(=O)[C@H](Cc1c[nH]cn1)NC(=O)CNC(=O)[C@H](CO)NC(=O)[C@H](CO)NC(=O)[C@H](CO)NC(=O)[C@H](CCCNC(=N)N)NC(=O)[C@H](CC(=O)O)NC(=O)[C@H](CC(=O)O)NC(=O)[C@@H](N)Cc1ccc(O)cc1)[C@@H](C)O)[C@@H](C)O)[C@@H](C)O)C(=O)O [CXCR2] (H-YDDRSSSGHTSTTL-OH)		Ki (PSD-95 PDZ1; 25 nM Cy5-KIF1Bα, 10 mM HEPES pH 7.4, 150 mM NaCl, 1% BSA, room temperature, mean Ki ± SEM from two or more independent experiments, read-out: K i PDZ1): 280 ± 25 µM; Ki (PSD-95 PDZ2): 370 ± 53 µM; Ki (PSD-95 PDZ3; read-out: K i PDZ3): 370 ± 39 µM
CC[C@H](C)[C@H](NC(=O)[C@H](CO)NC(=O)[C@H](CO)NC(=O)[C@H](CC(C)C)NC(=O)[C@H](CCCCN)NC(=O)[C@H](CCC(=O)O)NC(=O)[C@@H](N)Cc1ccc(O)cc1)C(=O)N[C@@H](CCC(=O)O)C(=O)N[C@@H](CO)C(=O)N[C@@H](CC(=O)O)C(=O)N[C@H](C(=O)O)C(C)C [GluN2B, reference compound] (H-YEKLSSIESDV-OH)		Ki (PSD-95 PDZ1; unlabeled reference ligand vs Cy5-KIF1Bα, mean Ki ± SEM from two or more independent experiments, read-out: Ki PDZ1 Result (Table S2)): 29 ± 2.5 µM; Ki (PSD-95 PDZ3; FP competition, unlabeled reference ligand vs Cy5-CRIPT, Ki ± fitting error, read-out: Ki PDZ3 Result (Table S2)): > 1000 µM
CC[C@H](C)[C@H](NC(=O)[C@H](CO)NC(=O)[C@@H](NC(=O)[C@H](CCC(N)=O)NC(=O)[C@H](CC(C)C)NC(=O)[C@H](CC(=O)O)NC(=O)CNC(=O)[C@H](CC(N)=O)NC(=O)[C@H](CC(C)C)NC(=O)[C@H](CC(C)C)NC(=O)[C@H](CCCNC(=N)N)NC(=O)[C@H](CC(=O)O)NC(=O)[C@H](CC(=O)O)NC(=O)[C@@H](N)Cc1ccc(O)cc1)[C@@H](C)O)C(=O)O [SSTR2A] (H-YDDRLLNGDLQTSI-OH)		Ki (PSD-95 PDZ1; [1]): 620 ± 106 µM; Ki (PSD-95 PDZ2): 230 ± 2 µM; Ki (PSD-95 PDZ3; read-out: K i PDZ3): > 1000 µM
CC[C@H](C)[C@H](NC(=O)[C@H](CCCNC(=N)N)NC(=O)[C@H](CCSC)NC(=O)[C@@H](NC(=O)[C@H](CO)NC(=O)[C@H](CO)NC(=O)[C@H](CCCCN)NC(=O)[C@H](CCCNC(=N)N)NC(=O)[C@H](CC(=O)O)NC(=O)[C@@H](N)CC(=O)O)[C@@H](C)O)C(=O)N[C@@H](CO)C(=O)N[C@@H](Cc1ccc(O)cc1)C(=O)N[C@@H](CC(C)C)C(=O)O [SSTR3] (H-DDRKSSTMRISYL-OH)		Ki (PSD-95 PDZ1; [1]): 610 ± 125 µM; Ki (PSD-95 PDZ1; receptors binding to PDZ1 but not to PDZ2, read-out: K i PDZ1): > 600 µM; Ki (PSD-95 PDZ2): > 1000 µM; Ki (PSD-95 PDZ3; read-out: K i PDZ3): 280 ± 5 µM
CC(C)C[C@H](NC(=O)[C@H](CC(C)C)NC(=O)[C@H](CO)NC(=O)[C@H](CC(=O)O)NC(=O)[C@H](CC(N)=O)NC(=O)[C@@H](NC(=O)[C@H](CO)NC(=O)[C@H](CS)NC(=O)[C@H](CC(N)=O)NC(=O)[C@H](CCCNC(=N)N)NC(=O)[C@H](CCCNC(=N)N)NC(=O)[C@H](CC(=O)O)NC(=O)[C@H](CC(=O)O)NC(=O)[C@@H](N)Cc1ccc(O)cc1)[C@@H](C)O)C(=O)O [β2AR] (H-YDDRRNCSTNDSLL-OH)		Ki (PSD-95 PDZ1; [1]): > 1000 µM; Ki (PSD-95 PDZ3; read-out: K i PDZ3): > 1000 µM
ANGLMQTSKL [SSTR5, synthetic peptide, C-terminal 10 aa of human SSTR5 with N-terminal YDDR/DDR linker]	not to interact	
DRTNHQVRSL [μOR-1A, synthetic peptide, C-terminal 10 aa of human µOR-1A with N-terminal YDDR/DDR linker]	not to interact	
EFKQNGDTSL [P2Y1, synthetic peptide, C-terminal 10 aa of human P2Y1 with N-terminal YDDR/DDR linker]	not to interact	
ESESSSFHSS [CXCR4, synthetic peptide, C-terminal 10 aa of human CXCR4 with N-terminal YDDR/DDR linker]	not to interact	
ETSEASYSGL [CXCR3, synthetic peptide, C-terminal 10 aa of human CXCR3 with N-terminal YDDR/DDR linker]	not to interact	
EVVDSTTSSL [mGlu2, synthetic peptide, C-terminal 10 aa of human mGlu2 with N-terminal YDDR/DDR linker]	not to interact	
GHPLMDSTL [LPA2, synthetic C-tail peptide of human LPA2 with N-terminal YDDR/DDR linker]	not to interact	
GVQPALGVGL [A2B, synthetic peptide, C-terminal 10 aa of human adenosine A2B receptor with N-terminal YDDR/DDR linker]	not to interact	
NDPESLESCF [5-HTR4(a), synthetic peptide, C-terminal 10 aa of human 5-HTR4(a) with N-terminal YDDR/DDR linker]	not to interact	
QRERRQKSDW [μOR-1B2, synthetic peptide, C-terminal 10 aa of human µOR-1B2 with N-terminal YDDR/DDR linker]	not to interact	
QSPFPFPGRV [μOR-1B5, synthetic peptide, C-terminal 10 aa of human µOR-1B5 with N-terminal YDDR/DDR linker]	not to interact	
RDIDGMNKPV [κOR, synthetic peptide, C-terminal 10 aa of human κ opioid receptor (no PDZ motif) with N-terminal YDDR/DDR linker]	not to interact; also recorded: no interaction	
RDYTQSSSSL [mGlu5(b), synthetic peptide, C-terminal 10 aa of human mGlu5(b) with N-terminal YDDR/DDR linker]	not to interact	
SDGPGGGAAA [δOR, synthetic peptide, C-terminal 10 aa of human δ opioid receptor with N-terminal YDDR/DDR linker]	not to interact	
SENATSLTTF [CXCR5, synthetic peptide, C-terminal 10 aa of human CXCR5 with N-terminal YDDR/DDR linker]	not to interact	
SSSVNVSSNL [CXCR1, synthetic peptide, C-terminal 10 aa of human CXCR1 with N-terminal YDDR/DDR linker]	not to interact	
TGEHEVSTGL [CCR5 Mouse, synthetic peptide, C-terminal 10 aa of mouse CCR5 with N-terminal YDDR/DDR linker]	not to interact	
TGEQEISVGL [CCR5 Human, synthetic peptide, C-terminal 10 aa of human CCR5 with N-terminal YDDR/DDR linker]	not to interact	
